The results in this text go back to ChEMBL document CHEMBL1152491, “Synthesis and evaluation of antibacterial activities of andrographolide analogues” (2009).

SMILES strings stand for the structures. Activity calls are given as the source filed them. The calls are words filed in the database; no cut-off is given here. A value given as a limit tells only on which side of the number the result lay.

The subject of test [1] is Pseudomonas aeruginosa. As to the kind of experiment: Growth inhibition of Pseudomonas aeruginosa PAO1 assessed as survival rate at 0.017 ug/mL after 20 hrs. It counts as functional. The settings on record: PAO1, 20 h.
A further test deals with Candida albicans. Nature of the test: Antifungal activity against Candida albicans at 0.05 mg/disk after 25 hrs. It counts as functional, organism-based.
Test [2] concerns Pseudomonas aeruginosa. Nature of the test: Antibacterial activity against Pseudomonas aeruginosa at 0.05 mg/disk after 25 hrs. It counts as functional.
For test [3], the system named is Pseudomonas aeruginosa. As to the kind of experiment: Inhibition of Pseudomonas aeruginosa PAO1 quorum sensing assessed as inhibition of pycocyanin production at 0.1 mM after 18 hrs. The test is classed as functional, organism-based.
Test [4] deals with Pseudomonas aeruginosa PAO1. Nature of the test: Inhibition of Pseudomonas aeruginosa PAO1 quorum sensing assessed as suppression of protease production at 0.1 mM after 18 hrs by azocasein-based colorimetric method.
The subject of test [5] is Pseudomonas aeruginosa PAO1. As to the kind of experiment: Inhibition of Pseudomonas aeruginosa PAO1 quorum sensing assessed as suppression of protease production at 1 mM after 18 hrs by azocasein-based colorimetric method.
The subject of test [6] is Staphylococcus aureus. As to the kind of experiment: Antibacterial activity against methicillin-resistant Staphylococcus aureus 5676 at 0.05 mg/disk after 25 hrs. The test is classed as functional.
Test [7] deals with Staphylococcus aureus. Nature of the test: Antibacterial activity against Staphylococcus aureus at 0.05 mg/disk after 25 hrs. It counts as functional.
For the next test, the system named is Bacillus subtilis. Nature of the test: Antibacterial activity against Bacillus subtilis at 0.05 mg/disk after 25 hrs. The test is classed as functional.
The next test has as its system Escherichia coli. Nature of the test: Antibacterial activity against Escherichia coli at 0.05 mg/disk after 25 hrs. The test is classed as functional.
For test [8], the system named is Staphylococcus aureus. As to the kind of experiment: Antibacterial activity against methicillin-resistant Staphylococcus aureus 5677 at 0.05 mg/disk after 25 hrs. The test is classed as functional.
Test [9] concerns Pseudomonas aeruginosa PAO1. Nature of the test: Inhibition of Pseudomonas aeruginosa PAO1 quorum sensing assessed as inhibition of pycocyanin production at 1 mM after 18 hrs.
For test [10], the system named is Pseudomonas aeruginosa. Nature of the test: Growth inhibition of Pseudomonas aeruginosa PAO1 at 1 mM after 25 hrs. It counts as functional, organism-based.
The test system of test [11] is Pseudomonas aeruginosa. As to the kind of experiment: Growth inhibition of Pseudomonas aeruginosa PAO1 assessed as population density at 1 mM after 15 hrs by atomic force microscopy. The test is classed as functional, organism-based.
For test [12], the system named is Pseudomonas aeruginosa. Nature of the test: Inhibition of Pseudomonas aeruginosa PAO1 biofilm formation cultivated on respiratory tack suction tube at 1 mM after 7 days by scanning electron microscopy. The test is classed as functional, organism-based.
In test [13] the test system is Pseudomonas aeruginosa. As to the kind of experiment: Inhibition of Pseudomonas aeruginosa PAO1 biofilm formation cultivated on respiratory tack suction tube at 1 mM after 3 days by scanning electron microscopy. The test is classed as functional, organism-based.
Test [14] concerns Pseudomonas aeruginosa. Nature of the test: Growth inhibition of Pseudomonas aeruginosa PAO1 assessed as survival rate at 538 ug/mL after 20 hrs. It counts as functional. The settings on record: PAO1, 20 h.
The test system of test [15] is Pseudomonas aeruginosa. Nature of the test: Growth inhibition of Pseudomonas aeruginosa PAO1 assessed as survival rate at 3.75 ug/mL after 20 hrs. The test is classed as functional. The settings on record: PAO1, 20 h.
Test [16] has as its system Pseudomonas aeruginosa. As to the kind of experiment: Growth inhibition of Pseudomonas aeruginosa PAO1 at 10 mM after 25 hrs. It counts as functional, organism-based.
The test system of test [17] is Pseudomonas aeruginosa PAO1. Nature of the test: Inhibition of Pseudomonas aeruginosa PAO1 quorum sensing assessed as inhibition of pycocyanin production at 10 mM after 18 hrs.
Test [18] concerns Pseudomonas aeruginosa PAO1. As to the kind of experiment: Inhibition of Pseudomonas aeruginosa PAO1 quorum sensing assessed as suppression of protease production at 10 mM after 18 hrs by azocasein-based colorimetric method.

`O=C(O)c1cn(C2CC2)c2cc(N3CCNCC3)c(F)cc2c1=O` [CIPROFLOXACIN]: in the test with Pseudomonas aeruginosa [1], the survival at 0.017 µg/mL was found to be 85%.
`C=C1CC[C@@H]2[C@](C)(CO)[C@H](O)CC[C@@]2(C)[C@@H]1C/C=C1/C(=O)OC[C@H]1OC(=O)CNC(=O)OC(C)(C)C`: the result in the test on Candida albicans was inactive. Moreover, the “diameter of the inhibition zone (DIZ)” value with Pseudomonas aeruginosa [2] is below 4 mm; in the test with Staphylococcus aureus [6], 8.4 mm; with Staphylococcus aureus [7] it was 10.2 mm; in the test on Bacillus subtilis, below 4 mm; with Escherichia coli it was below 4 mm; with Staphylococcus aureus [8], 7.6 mm. For the same molecule, the outcome (in the test with Pseudomonas aeruginosa [3]; in [4]; in [5]; in test [9]) was Active.
As to `C=C1CC[C@@H]2[C@](C)(CO)[C@H](O)CC[C@@]2(C)[C@@H]1C/C=C1/C(=O)OC[C@H]1OC(=O)/C=C/c1ccc([N+](=O)[O-])cc1`, the outcome in the test with Candida albicans was inactive. Also, the “diameter of the inhibition zone (DIZ)” value in the test on Pseudomonas aeruginosa [2] is below 4 mm; in the test with Staphylococcus aureus [6], 8.1 mm; with Staphylococcus aureus [7], 8.3 mm; with Bacillus subtilis, below 4 mm; in the test on Escherichia coli, below 4 mm; in the test on Staphylococcus aureus [8], 6.4 mm. Also, the outcome (in the test with Pseudomonas aeruginosa [3]; in [4]; in [5]; in test [9]) was Active.
As to `C=C1CC[C@@H]2[C@](C)(CO)[C@H](O)CC[C@@]2(C)[C@@H]1C/C=C1/C(=O)OC[C@H]1O` [ANDROGRAPHOLIDE], the “diameter of the inhibition zone (DIZ)” value in the test on Pseudomonas aeruginosa [2], in the test on Staphylococcus aureus [7], in the test on Bacillus subtilis and with Escherichia coli was below 4 mm in each case. Also, the outcome (in [4]; in the test with Pseudomonas aeruginosa [10]; in test [5]) was Active. Also, the outcome in the test on Pseudomonas aeruginosa [11], in the test on Pseudomonas aeruginosa [12] and with Pseudomonas aeruginosa [13] was inactive.
As to `C=C1CC[C@@H]2[C@](C)(CO)[C@H](O)CC[C@@]2(C)[C@@H]1C/C=C1/C(=O)OC[C@H]1OC(=O)CCCCC1CCSS1` (stereo not given in full), in the test on Candida albicans, the result was inactive. Further, the “diameter of the inhibition zone (DIZ)” value with Pseudomonas aeruginosa [2] is given as below 4 mm; in the test with Staphylococcus aureus [6], 6.9 mm; with Staphylococcus aureus [7], 4.9 mm; with Bacillus subtilis, below 4 mm; in the test on Escherichia coli, below 4 mm; in the test on Staphylococcus aureus [8], 4.1 mm. The result (in the test with Pseudomonas aeruginosa [3]; in test [4]; with Pseudomonas aeruginosa [10]; in test [5]; with Pseudomonas aeruginosa [11]; with Pseudomonas aeruginosa [12]) was Active. The result (in the test with Pseudomonas aeruginosa [13]; in [9]) was Active. For the same molecule, the survival at 538 µg/mL in the test with Pseudomonas aeruginosa [14] worked out at 84%.
On to `C=C1CC[C@@H]2[C@](C)(CO)[C@H](O)CC[C@@]2(C)[C@@H]1C/C=C1/C(=O)OC[C@H]1OC(=O)CN.Cl`, for which the outcome with Candida albicans, with Pseudomonas aeruginosa [12] and with Pseudomonas aeruginosa [13] was inactive. Besides, the “diameter of the inhibition zone (DIZ)” value in the test on Pseudomonas aeruginosa [2] is below 4 mm; with Staphylococcus aureus [6], 8.7 mm; in the test on Staphylococcus aureus [7] it was 9.3 mm; with Bacillus subtilis, below 4 mm; with Escherichia coli it was below 4 mm; with Staphylococcus aureus [8], 5.2 mm. The result (in the test with Pseudomonas aeruginosa [3]; in test [4]; with Pseudomonas aeruginosa [10]; in test [5]; in the test with Pseudomonas aeruginosa [11]; in test [9]) was Active.
With `CC[C@H]1OC(=O)[C@H](C)[C@@H](O[C@H]2C[C@@](C)(OC)[C@@H](O)[C@H](C)O2)[C@H](C)[C@@H](O[C@@H]2O[C@H](C)C[C@H](N(C)C)[C@H]2O)[C@](C)(O)C[C@@H](C)C(=O)[C@H](C)[C@@H](O)[C@]1(C)O` [ERYTHROMYCIN], in the test on Pseudomonas aeruginosa [15], the survival at 3.75 µg/mL is 93.5%.
As to `C=C1CC[C@@H]2[C@](C)(CO)[C@H](O)CC[C@@]2(C)[C@@H]1CC(C1=CCOC1=O)S(=O)(=O)[O-].[Na+]` (stereo not given in full), the outcome with Candida albicans, in the test with Pseudomonas aeruginosa [3] and in the test on Pseudomonas aeruginosa [16] was inactive. Besides, the “diameter of the inhibition zone (DIZ)” value in the test on Pseudomonas aeruginosa [2], with Staphylococcus aureus [7], in the test with Bacillus subtilis and with Escherichia coli was below 4 mm throughout. Moreover, the outcome in test [4], in [17] and in test [18] was Active.
